# Laboratory results: ChEMBL document CHEMBL3822399, “Discovery of novel, high potent, ABC type PTP1B inhibitors with TCPTP selectivity and cellular activity” (Eur J Med Chem, 2016)
# The source made the active and inactive calls. The calls are words filed in the database; no cut-off is given here.
# Assays:
# [1] = molecular target: T1, Tyrosine-protein phosphatase non-receptor type 1 (Homo sapiens, UniProt P18031); assay: Inhibition of recombinant PTP1B (unknown origin) using pNPP as substrate incubated for 30 mins
# T1 sequence (P18031 whole entry): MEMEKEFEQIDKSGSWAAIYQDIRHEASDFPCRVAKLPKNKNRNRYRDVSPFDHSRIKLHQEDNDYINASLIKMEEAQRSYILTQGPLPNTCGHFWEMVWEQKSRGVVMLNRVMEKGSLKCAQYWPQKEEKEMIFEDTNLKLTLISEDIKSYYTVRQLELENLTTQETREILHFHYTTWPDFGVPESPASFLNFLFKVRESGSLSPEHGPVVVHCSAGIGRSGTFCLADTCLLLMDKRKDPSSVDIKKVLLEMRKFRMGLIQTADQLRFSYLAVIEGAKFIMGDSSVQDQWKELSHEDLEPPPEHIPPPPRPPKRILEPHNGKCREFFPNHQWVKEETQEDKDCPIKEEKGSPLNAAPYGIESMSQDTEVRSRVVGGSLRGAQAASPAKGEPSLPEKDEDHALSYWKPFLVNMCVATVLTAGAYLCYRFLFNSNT
# [2] = molecular target: T2, Tyrosine-protein phosphatase non-receptor type 2 (Homo sapiens, UniProt P17706); assay: Inhibition of human TCPTP using pNPP as substrate incubated for 30 mins
# T2 sequence (P17706 whole entry): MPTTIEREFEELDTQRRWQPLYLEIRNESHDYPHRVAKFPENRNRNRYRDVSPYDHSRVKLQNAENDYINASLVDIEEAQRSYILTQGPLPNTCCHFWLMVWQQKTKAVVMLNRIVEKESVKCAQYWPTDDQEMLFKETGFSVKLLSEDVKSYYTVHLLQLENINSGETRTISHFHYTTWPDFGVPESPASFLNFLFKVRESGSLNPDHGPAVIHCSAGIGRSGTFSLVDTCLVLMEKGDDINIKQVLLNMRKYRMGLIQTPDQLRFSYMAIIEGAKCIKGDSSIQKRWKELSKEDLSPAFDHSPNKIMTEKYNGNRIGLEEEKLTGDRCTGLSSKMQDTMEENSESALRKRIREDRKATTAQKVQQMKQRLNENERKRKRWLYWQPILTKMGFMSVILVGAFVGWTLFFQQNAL
# [3] = molecular target: T3, Tyrosine-protein phosphatase non-receptor type 6 (Homo sapiens, UniProt P29350); assay: Inhibition of human SHP1 using pNPP as substrate incubated for 30 mins
# T3 sequence (P29350 whole entry): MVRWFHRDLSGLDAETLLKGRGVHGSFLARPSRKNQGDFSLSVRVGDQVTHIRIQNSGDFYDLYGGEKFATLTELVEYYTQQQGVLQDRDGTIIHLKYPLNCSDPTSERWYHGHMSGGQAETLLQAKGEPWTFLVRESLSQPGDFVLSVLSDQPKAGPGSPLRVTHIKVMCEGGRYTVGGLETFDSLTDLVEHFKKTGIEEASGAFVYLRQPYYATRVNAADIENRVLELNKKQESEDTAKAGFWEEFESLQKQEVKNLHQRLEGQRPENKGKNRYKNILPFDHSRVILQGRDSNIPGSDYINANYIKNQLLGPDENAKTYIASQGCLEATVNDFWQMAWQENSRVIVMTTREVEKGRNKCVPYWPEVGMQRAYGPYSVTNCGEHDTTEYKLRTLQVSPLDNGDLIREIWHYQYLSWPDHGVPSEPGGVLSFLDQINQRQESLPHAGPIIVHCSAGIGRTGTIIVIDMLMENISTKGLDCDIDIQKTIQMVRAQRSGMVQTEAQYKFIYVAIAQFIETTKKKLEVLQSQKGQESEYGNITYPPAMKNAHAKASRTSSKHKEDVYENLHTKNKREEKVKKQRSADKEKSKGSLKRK
# [4] = molecular target: T4, Tyrosine-protein phosphatase non-receptor type 11 (Homo sapiens) (UniProt Q06124); assay: Inhibition of human SHP2 using pNPP as substrate at 25 uM incubated for 30 mins relative to control
# T4 sequence (whole entry): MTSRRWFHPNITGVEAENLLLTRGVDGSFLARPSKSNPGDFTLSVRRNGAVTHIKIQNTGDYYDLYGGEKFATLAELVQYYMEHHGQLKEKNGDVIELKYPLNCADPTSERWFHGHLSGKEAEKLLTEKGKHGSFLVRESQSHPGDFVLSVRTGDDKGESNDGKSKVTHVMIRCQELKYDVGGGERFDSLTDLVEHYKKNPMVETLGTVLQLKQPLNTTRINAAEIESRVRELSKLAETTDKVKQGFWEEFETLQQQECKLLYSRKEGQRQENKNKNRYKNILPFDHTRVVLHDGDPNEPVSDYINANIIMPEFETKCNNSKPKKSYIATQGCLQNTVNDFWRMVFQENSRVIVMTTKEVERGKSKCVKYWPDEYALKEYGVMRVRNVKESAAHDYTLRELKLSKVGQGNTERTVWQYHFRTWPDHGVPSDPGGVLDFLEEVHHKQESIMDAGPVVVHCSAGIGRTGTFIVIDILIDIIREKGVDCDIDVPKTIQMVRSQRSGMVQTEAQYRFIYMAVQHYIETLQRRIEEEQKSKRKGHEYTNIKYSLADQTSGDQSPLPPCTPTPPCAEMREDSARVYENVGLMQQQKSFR
# [5] = molecular target: T5, Receptor-type tyrosine-protein phosphatase F (Homo sapiens, UniProt P10586); assay: Inhibition of human LAR using pNPP as substrate at 25 uM incubated for 30 mins relative to control
# T5 sequence (P10586 whole entry): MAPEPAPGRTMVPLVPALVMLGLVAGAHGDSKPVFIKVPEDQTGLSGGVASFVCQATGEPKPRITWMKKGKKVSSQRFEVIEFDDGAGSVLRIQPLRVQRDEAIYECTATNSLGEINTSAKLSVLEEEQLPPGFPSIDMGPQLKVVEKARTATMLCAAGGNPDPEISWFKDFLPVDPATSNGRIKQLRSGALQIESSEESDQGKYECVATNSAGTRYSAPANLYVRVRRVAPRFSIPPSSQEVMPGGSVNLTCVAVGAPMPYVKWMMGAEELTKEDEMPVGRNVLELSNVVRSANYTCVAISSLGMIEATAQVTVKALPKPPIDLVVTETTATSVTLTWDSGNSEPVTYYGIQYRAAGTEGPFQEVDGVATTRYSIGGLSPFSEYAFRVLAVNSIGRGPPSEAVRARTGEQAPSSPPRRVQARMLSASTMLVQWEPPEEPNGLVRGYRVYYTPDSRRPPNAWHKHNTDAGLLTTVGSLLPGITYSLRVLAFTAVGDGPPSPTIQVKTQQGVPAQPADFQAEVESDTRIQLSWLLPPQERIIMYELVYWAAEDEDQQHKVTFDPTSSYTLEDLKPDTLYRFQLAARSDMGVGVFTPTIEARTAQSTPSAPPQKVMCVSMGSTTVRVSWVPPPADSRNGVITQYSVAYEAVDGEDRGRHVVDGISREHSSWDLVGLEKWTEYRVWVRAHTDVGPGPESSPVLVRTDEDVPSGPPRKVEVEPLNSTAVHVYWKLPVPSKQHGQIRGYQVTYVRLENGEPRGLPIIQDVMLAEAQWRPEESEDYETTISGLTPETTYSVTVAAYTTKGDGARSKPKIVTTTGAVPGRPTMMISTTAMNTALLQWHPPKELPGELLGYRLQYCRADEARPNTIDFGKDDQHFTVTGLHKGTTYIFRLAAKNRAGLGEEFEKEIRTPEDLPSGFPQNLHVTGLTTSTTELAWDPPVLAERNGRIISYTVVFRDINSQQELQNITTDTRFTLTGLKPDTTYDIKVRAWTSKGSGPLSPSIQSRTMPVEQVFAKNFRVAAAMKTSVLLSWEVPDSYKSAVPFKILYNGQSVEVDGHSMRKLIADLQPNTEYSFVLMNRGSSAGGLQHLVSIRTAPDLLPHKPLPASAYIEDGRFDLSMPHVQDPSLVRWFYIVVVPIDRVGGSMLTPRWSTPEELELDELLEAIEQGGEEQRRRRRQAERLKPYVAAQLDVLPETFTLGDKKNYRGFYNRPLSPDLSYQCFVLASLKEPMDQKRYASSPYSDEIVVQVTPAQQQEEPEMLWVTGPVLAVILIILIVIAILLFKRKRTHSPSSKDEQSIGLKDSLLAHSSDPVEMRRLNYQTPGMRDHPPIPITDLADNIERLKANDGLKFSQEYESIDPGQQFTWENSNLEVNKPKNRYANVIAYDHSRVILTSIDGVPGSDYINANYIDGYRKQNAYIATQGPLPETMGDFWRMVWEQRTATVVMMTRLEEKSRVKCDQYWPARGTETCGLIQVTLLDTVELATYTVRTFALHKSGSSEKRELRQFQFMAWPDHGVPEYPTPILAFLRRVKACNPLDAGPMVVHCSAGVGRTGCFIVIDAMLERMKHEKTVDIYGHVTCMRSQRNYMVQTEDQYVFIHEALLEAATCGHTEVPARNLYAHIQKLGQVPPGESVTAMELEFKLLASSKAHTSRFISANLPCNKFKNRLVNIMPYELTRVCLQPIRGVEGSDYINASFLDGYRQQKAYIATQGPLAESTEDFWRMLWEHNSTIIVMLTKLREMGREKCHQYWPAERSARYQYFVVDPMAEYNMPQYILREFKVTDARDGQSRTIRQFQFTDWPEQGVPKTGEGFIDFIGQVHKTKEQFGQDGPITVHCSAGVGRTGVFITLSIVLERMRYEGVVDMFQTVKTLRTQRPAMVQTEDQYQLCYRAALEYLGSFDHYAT
# [6] = species: Homo sapiens; assay: Selectivity ratio of IC50 for human SHP1 to IC50 for recombinant PTP1B (unknown origin)
# [7] = molecular target: T6, Tyrosine-protein phosphatase non-receptor type 11 (Homo sapiens, UniProt Q06124); assay: Inhibition of human SHP2 using pNPP as substrate incubated for 30 mins
# T6 sequence (Q06124 whole entry): T4 sequence (whole entry)
# [8] = molecular target: T5, Receptor-type tyrosine-protein phosphatase F; assay: Inhibition of human LAR using pNPP as substrate incubated for 30 mins
# [9] = test system: CHO; assay: Inhibition of PTP1B in CHO cells expressing human IR assessed as increase in insulin-mediated IR-beta phosphorylation at tyrosine residue 20 at 15 to 30 uM preincubated for 4 hrs followed by insulin stimulation measured after 10 mins by western blot analysis; assay type: cell-based; conditions: Cricetulus griseus
# [10] = molecular target: T7, Tyrosine-protein phosphatase non-receptor type 1 (Rattus norvegicus) (UniProt P20417); assay: Inhibition of PTP1B in rat L6 cells assessed as increase in insulin-stimulated 2-NBDG uptake at 5 uM preincubated for 4 hrs followed by insulin stimulation for 10 mins and subsequent addition of 2-NBDG measured after 30 mins by fluorescence assay relative to control; assay type: cell-based; parameters: scale not given: the % may be the effect or the level left
# T7 sequence (whole entry): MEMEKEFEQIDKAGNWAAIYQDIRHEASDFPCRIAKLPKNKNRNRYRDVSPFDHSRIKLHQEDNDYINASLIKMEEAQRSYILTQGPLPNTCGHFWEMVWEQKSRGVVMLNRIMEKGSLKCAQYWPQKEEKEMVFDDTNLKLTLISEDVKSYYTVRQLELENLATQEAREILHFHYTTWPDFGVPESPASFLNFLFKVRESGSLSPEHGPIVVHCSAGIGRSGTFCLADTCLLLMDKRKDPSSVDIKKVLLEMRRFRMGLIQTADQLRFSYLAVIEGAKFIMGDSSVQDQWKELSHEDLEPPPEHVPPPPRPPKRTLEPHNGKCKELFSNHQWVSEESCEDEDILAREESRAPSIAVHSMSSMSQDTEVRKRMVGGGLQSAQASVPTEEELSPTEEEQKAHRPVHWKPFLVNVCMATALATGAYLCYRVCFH
# [11] = molecular target: T7, Tyrosine-protein phosphatase non-receptor type 1 (Rattus norvegicus); assay: Inhibition of PTP1B in rat L6 cells assessed as increase in insulin-stimulated 2-NBDG uptake at 10 uM preincubated for 4 hrs followed by insulin stimulation for 10 mins and subsequent addition of 2-NBDG measured after 30 mins by fluorescence assay relative to control; assay type: cell-based; parameters: scale not given: the % may be the effect or the level left
# [12] = molecular target: T7, Tyrosine-protein phosphatase non-receptor type 1 (Rattus norvegicus); assay: Inhibition of PTP1B in rat L6 cells assessed as increase in insulin-stimulated 2-NBDG uptake at 20 uM preincubated for 4 hrs followed by insulin stimulation for 10 mins and subsequent addition of 2-NBDG measured after 30 mins by fluorescence assay relative to control; assay type: cell-based; parameters: scale not given: the % may be the effect or the level left
# [13] = molecular target: T8, Tyrosine-protein phosphatase non-receptor type 1 (Homo sapiens) (UniProt P18031); assay: Inhibition of recombinant PTP1B (unknown origin) using pNPP as substrate at 25 uM incubated for 30 mins relative to control
# T8 sequence (whole entry): T1 sequence (P18031 whole entry)
# [14] = molecular target: T9, Tyrosine-protein phosphatase non-receptor type 2 (Homo sapiens) (UniProt P17706); assay: Inhibition of human TCPTP using pNPP as substrate at 25 uM incubated for 30 mins relative to control
# T9 sequence (whole entry): T2 sequence (P17706 whole entry)
# [15] = molecular target: T3, Tyrosine-protein phosphatase non-receptor type 6; assay: Inhibition of human SHP1 using pNPP as substrate at 25 uM incubated for 30 mins relative to control
compound,measurement,setting,value
COC(=O)CN(c1ccc(CN(c2ccc(OCc3ccccc3)c(C(=O)OC)c2)S(=O)(=O)Cc2ccccc2)cc1)S(C)(=O)=O,IC50,[1],0.355 µM
same,IC50,[2],0.427 µM
same,IC50,[3],6.46 µM
same,inhibition,[4],< 50%
same,inhibition,[5],< 50%
same,Ratio IC50,[6],18
COC(=O)CN(c1ccc(CN(c2ccc(OCc3ccccc3)cc2)S(=O)(=O)Cc2ccccc2)cc1)S(C)(=O)=O,IC50,[1],16 µM
CCCCOc1ccc(N(Cc2ccc(N(CC(=O)OC)S(C)(=O)=O)cc2)S(=O)(=O)Cc2ccccc2)cc1C(=O)OC,IC50,[1],4.83 µM
COC(=O)CN(c1ccc(CN(c2ccc(OCc3ccc(C)cc3)c(C(=O)OC)c2)S(=O)(=O)Cc2ccccc2)cc1)S(C)(=O)=O,IC50,[1],0.05 µM
same,IC50,[2],0.76 µM
same,IC50,[3],2.45 µM
same,IC50,[7],2.16 µM
same,IC50,[8],12.6 µM
same,Ratio IC50,[6],49
same,inhibition,[9],Active
same,Activity,[10],16%
same,Activity,[11],19%
same,Activity,[12],38.1%
CC1(C)CC[C@]2(C(=O)O)CC[C@]3(C)C(=CC[C@@H]4[C@@]5(C)CC[C@H](O)C(C)(C)[C@@H]5CC[C@]43C)[C@@H]2C1 [OLEANOLIC_ACID],IC50,[7],11.6 µM
same,IC50,[8],22.3 µM
COC(=O)CN(c1ccc(CN(c2ccc(OCc3cccc(C)c3)c(C(=O)OC)c2)S(=O)(=O)Cc2ccccc2)cc1)S(C)(=O)=O,inhibition,[13],< 50%
CCCOc1ccc(N(Cc2ccc(N(CC(=O)OC)S(C)(=O)=O)cc2)S(=O)(=O)Cc2ccccc2)cc1C(=O)OC,IC50,[1],0.936 µM
same,inhibition,[14],< 50%
same,inhibition,[15],< 50%
same,inhibition,[4],< 50%
same,inhibition,[5],< 50%
same,Activity,[10],6.9%
same,Activity,[11],26.1%
same,Activity,[12],27.7%
CCOc1ccc(N(Cc2ccc(N(CC(=O)OC)S(C)(=O)=O)cc2)S(=O)(=O)Cc2ccccc2)cc1C(=O)OC,inhibition,[13],< 50%
